This passage reports mortality rate results from US8558019B2, “Thiolated paclitaxels for reaction with gold nanoparticles as drug delivery agents” (Virginia Tech Intellectual Properties, Inc., priority 2007, dated 2013).

In the data set the test system is B16/F10 melanoma cells. The data set is described as follows: Efficacy study in tumor-burdened mice, tumor volume and mortality. Type of data set: in vivo, C57BL/6 mice. Particulars: paclitaxel 40 mg/kg, formulations […], day 0, 2, 5 and 7. On the procedure: The efficacy of the formulated nanodrugs was compared to that of unformulated paclitaxel for the treatment of tumor-burdened mice. For these studies C57BL/6 mice were implanted with B16/F10 melanoma cells. Once the cells formed tumors with an approximate volume of 500 mm^3 the mice (n=4/group/formulation) received an injection of either unformulated paclitaxel or one of the formulations (Formulations II, IV and XIII). Paclitaxel was given at a dose of 40 mg/kg, whereas the formulated drugs were administered at a dose of 2.5 mg/kg. The mice were treated on day 0, 2, 5 and 7 of the days and tumor responses were determined by measuring tumor volume during the course of the study

The compound `CC(=O)O[C@H]1C(=O)[C@@]2(C)[C@H]([C@H](OC(=O)c3ccccc3)[C@]3(O)C[C@H](OC(=O)[C@H](O)[C@@H](NC(=O)c4ccccc4)c4ccccc4)C(C)=C1C3(C)C)[C@]1(OC(C)=O)CO[C@@H]1C[C@@H]2O` [unformulated paclitaxel, Paclitaxel] returned a mortality rate of 75%.
